# Article PMC8234620, “An Integrated Peptidomics and In Silico Approach to Identify Novel Anti-Diabetic Peptides in Parmigiano-Reggiano Cheese” (Biology, 2021)
# Ends that are not written are not given here. Peptide text beside a SMILES is read from it.
# What was measured:
# [1] = biological target: T1, porcine pancreatic α-amylase (Sus scrofa, UniProt P00690); assay: α-Amylase assay; type: biochemical; conditions: synthetic peptides; n.a. = not active
# T1 sequence (P00690 16-511): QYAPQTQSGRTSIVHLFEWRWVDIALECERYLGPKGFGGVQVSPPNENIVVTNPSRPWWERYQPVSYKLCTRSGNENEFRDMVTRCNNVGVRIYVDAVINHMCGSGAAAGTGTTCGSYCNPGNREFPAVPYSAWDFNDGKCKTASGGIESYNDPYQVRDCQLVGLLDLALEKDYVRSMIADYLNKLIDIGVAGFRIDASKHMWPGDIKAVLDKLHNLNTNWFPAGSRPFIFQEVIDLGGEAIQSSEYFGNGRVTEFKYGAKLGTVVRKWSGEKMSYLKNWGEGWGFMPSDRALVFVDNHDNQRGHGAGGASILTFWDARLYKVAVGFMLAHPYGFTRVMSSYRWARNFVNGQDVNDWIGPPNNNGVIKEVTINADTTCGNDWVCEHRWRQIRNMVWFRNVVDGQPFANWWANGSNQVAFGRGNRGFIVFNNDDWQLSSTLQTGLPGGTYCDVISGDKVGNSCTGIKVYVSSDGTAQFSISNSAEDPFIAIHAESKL
# Procedure: α-Amylase assay was performed in accordance with McDougall et al. adapted to a microplate reader. For the reaction, 5 μL of 2 U/mL of porcine pancreatic α-amylase (dissolved in sodium phosphate buffer 20 mmol/L pH 6.9 containing 6.7 mmol/L NaCl) were mixed with 45 μL of sodium phosphate buffer or different concentrations of water-soluble low-molecular weight peptide extracts. The mixture was incubated at 37 °C for 20 min before adding 50 μL of 1% starch solution. The reaction was carried out at 37 °C for 10 min and stopped by the addition of dinitrosalicylic acid solution, followed by 15 min boiling in a water bath. After the addition of 450 μL of water, 200 μL of solution was transferred in a 96-well plate and the absorbance was read at 540 nm. Results were expressed as IC50, namely the peptides concentration (expressed in mg/mL) able to inhibit the enzymatic activity by 50%. The IC50 values were calculated by plotting the peptide concentration (base-10 logarithm) as a function of the percentage of enzyme inhibition.
# (§1) Selected peptides were then synthesized (Bio-Fab Research, Rome, Italy) and tested for their inhibitory activity against DPP-IV, α-glucosidase, and α-amylase. The assays were carried out as reported in Section 2.3. The results were expressed as IC50 values.
# yeast α-glucosidase = yeast α-glucosidase (Saccharomyces cerevisiae, UniProt P53341); assay: α-Glucosidase assay; type: biochemical; conditions: for IC50: synthetic peptides, n.a. = not active; for inhibition at 1000 µM: read-out: percentage of inhibition of α-glucosidase
# yeast α-glucosidase, sequence (P53341 whole entry): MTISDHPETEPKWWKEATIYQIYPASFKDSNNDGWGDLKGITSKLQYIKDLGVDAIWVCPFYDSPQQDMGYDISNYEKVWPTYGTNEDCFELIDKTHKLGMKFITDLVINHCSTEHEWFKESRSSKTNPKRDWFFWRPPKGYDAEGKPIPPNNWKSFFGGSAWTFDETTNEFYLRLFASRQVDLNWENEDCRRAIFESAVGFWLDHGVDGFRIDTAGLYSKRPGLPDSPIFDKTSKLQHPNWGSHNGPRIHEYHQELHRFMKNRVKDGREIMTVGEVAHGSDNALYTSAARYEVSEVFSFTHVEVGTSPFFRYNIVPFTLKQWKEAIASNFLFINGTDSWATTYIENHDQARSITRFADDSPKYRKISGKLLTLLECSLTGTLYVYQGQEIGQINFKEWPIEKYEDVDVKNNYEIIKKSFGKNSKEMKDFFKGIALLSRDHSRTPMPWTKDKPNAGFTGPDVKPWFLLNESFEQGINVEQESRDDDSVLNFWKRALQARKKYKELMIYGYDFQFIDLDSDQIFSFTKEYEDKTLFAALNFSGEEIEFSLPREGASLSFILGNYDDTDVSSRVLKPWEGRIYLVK
# Procedure: α-Glucosidase assay was performed as reported in Bellesia et al., adapted to a microplate reader. The reaction was performed by mixing 66.7 μL of potassium phosphate buffer (67 mmol/L, pH 6.8), 3.3 μL of glutathione 3 mmol/L, 20 μL of different concentrations of water-soluble low-molecular weight peptide extracts, and 5 μL of yeast α-glucosidase 0.2 U/mL. After 20 min of incubation at 37 °C, the reaction was started by the addition of 5 μL of p-nitrophenyl-glucose 5 mmol/L. After a further 20 min of incubation at 37 °C, the reaction was stopped by the addition of 150 μL of Na2CO3 100 mmol/L. The amount of released p-nitrophenol was determined by reading at 405 nm with a microplate reader. Results were expressed as IC50 as reported above.
# as §1
# rat intestinal DPP-IV = biological target: T2, rat intestinal DPP-IV (Rattus norvegicus, UniProt P14740); assay: Dipeptidyl peptidase IV (DPP-IV) assay; type: biochemical; conditions: synthetic peptides
# T2 construct: 10 μL of rat intestinal DPP-IV (0.1 U/mL in the assay); from tissue; host or cells: rat intestine
# T2 sequence (P14740 whole entry): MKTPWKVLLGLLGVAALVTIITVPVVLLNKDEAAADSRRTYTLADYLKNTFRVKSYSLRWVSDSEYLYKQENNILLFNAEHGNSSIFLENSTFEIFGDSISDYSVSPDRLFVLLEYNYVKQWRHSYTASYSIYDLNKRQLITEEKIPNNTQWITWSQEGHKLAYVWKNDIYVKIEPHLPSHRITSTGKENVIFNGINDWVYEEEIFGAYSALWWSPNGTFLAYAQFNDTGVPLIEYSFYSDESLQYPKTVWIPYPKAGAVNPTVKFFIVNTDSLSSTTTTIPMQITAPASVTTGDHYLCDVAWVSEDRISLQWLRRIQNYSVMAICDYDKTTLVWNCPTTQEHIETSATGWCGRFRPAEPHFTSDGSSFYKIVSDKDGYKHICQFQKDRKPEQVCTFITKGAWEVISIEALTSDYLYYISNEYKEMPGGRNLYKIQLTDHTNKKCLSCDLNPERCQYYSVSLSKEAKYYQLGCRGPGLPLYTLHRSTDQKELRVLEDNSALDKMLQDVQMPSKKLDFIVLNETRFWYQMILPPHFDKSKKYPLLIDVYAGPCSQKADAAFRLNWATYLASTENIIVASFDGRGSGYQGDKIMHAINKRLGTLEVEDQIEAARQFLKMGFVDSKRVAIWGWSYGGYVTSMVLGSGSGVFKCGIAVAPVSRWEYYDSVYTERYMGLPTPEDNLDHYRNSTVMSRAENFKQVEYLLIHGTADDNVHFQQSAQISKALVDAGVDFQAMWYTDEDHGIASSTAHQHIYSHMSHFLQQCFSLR
# Procedure: DPP-IV assay was performed as described in Tagliazucchi et al.. Briefly, in a 96-well plate, 10 μL of rat intestinal DPP-IV (0.1 U/mL in the assay) were mixed with 145 μL of Tris-HCl buffer (pH 7.0; 0.1 mol/L) and 40 μL of different concentrations of water-soluble low-molecular weight peptide extracts. After 20 min of incubation at 37 °C, the reaction was started by the addition of 5 μL of glycine-proline-p-nitroanilide (6.4 mmol/L). The amount of released p-nitroanilide was determined after 20 min of incubation at 37 °C by reading at 405 nm in a microplate reader. Results were expressed as IC50 as reported above.
# as §1
# [2] = test system: angiotensin converting enzyme; conditions: cited from earlier work; for Bioactivity: ACE-inhibition: ref BIOPEP database and Milk Bioactive Peptides Database; for IC50 values against ACE: ref [47],[48],[49]
# [3] = design: method as in BIOPEP database and Milk Bioactive Peptides Database; conditions: ref BIOPEP database and Milk Bioactive Peptides Database; cited from earlier work
# DPP-IV = conditions: cited from earlier work; for Bioactivity: DPP-IV-inhibition: ref BIOPEP database and Milk Bioactive Peptides Database; for IC50: ref [41],[51],[52], read-out: IC50 DPP-IV, previously reported
# [4] = design: method as in PMID 16899668, doi:10.1016/j.foodres.2015.12.007; conditions: spontaneously hypertensive rats; ref [48],[49]; cited from earlier work
# [5] = design: method as in BIOPEP database and Milk Bioactive Peptides Database; conditions: ref BIOPEP database and Milk Bioactive Peptides Database; cited from earlier work; remark: listed apart in the source
# [6] = design: method as in BIOPEP database and Milk Bioactive Peptides Database; conditions: ref BIOPEP database and Milk Bioactive Peptides Database; cited from earlier work; remark: listed apart in the source
# [7] = design: method as in BIOPEP database and Milk Bioactive Peptides Database; conditions: ref BIOPEP database and Milk Bioactive Peptides Database; cited from earlier work; remark: listed apart in the source
# α-glucosidase = conditions: cited from earlier work
# [8] = test system: Staphylococcus aureus, Streptococcus pyogenes, and Listeria monocytogenes; design: method as in PMID 8603791; conditions: mice; ref [50]; cited from earlier work
# [9] = design: method as in PMID 27572703, PMID 33337010; conditions: mild hypertensive subjects; ref [47],[58]; cited from earlier work
molecule,measurement,setting,value
CC[C@H](C)[C@H](N)C(=O)N1CCC[C@H]1C(=O)N1CCC[C@H]1C(=O)O [IPP],IC50,[1],763 ± 18.9 µM
same,IC50,yeast α-glucosidase,765 ± 15 µM
same,IC50,rat intestinal DPP-IV,169 ± 2.2 µM
CC(C)C[C@H](N)C(=O)N1CCC[C@H]1C(=O)N1CCC[C@H]1C(=O)N[C@H](C(=O)O)[C@@H](C)O [LPPT] (H-LPPT-OH),IC50,rat intestinal DPP-IV,495.3 ± 3.6 µM
O=C(O)[C@H](Cc1ccccc1)NC(=O)[C@@H]1CCCN1C(=O)[C@@H]1CCCN1 [PPF] (H-Pro-Pro-Phe-OH),inhibition at 1000 µM,yeast α-glucosidase,8.8 ± 1.3%
same,IC50,yeast α-glucosidase,> 1000 µM
same,IC50,rat intestinal DPP-IV,142 ± 1.7 µM
APFPE [APFPE],IC50,rat intestinal DPP-IV,49.5 ± 0.5 µM
"EMPFPK (UniProt P02666 123-128, looked up, fragment) [β-casein f(108–113)]",Bioactivity: ACE-inhibition,[2],ACE-inhibition
same,Bioactivity: Anti-microbial,[3],Anti-microbial
"IPPL (UniProt P02666 89-92, looked up, fragment) [β-casein f(74–77)]",Bioactivity: DPP-IV-inhibition,DPP-IV,DPP-IV-inhibition
same,IC50,DPP-IV,429 µM
IPPLTQTPV [β-casein f(74–82)],Bioactivity: DPP-IV-inhibition,DPP-IV,DPP-IV-inhibition
same,IC50,DPP-IV,465 µM
"LHLPLP (UniProt P02666 148-153, looked up, fragment) [β-casein f(133–138)]",Bioactivity: ACE-inhibition,[2],ACE-inhibition
same,IC50 values against ACE,[2],low
same,effect on systolic blood pressure,[4],powerful decreasing agents of systolic blood pressure
"LLY (UniProt P02666 206-208, looked up, fragment) [β-casein f(191–193)]",Bioactivity: Antioxidant,[5],Antioxidant
same,Bioactivity: Anti-inflammatory,[6],Anti-inflammatory
same,Bioactivity: Immunomodulation,[7],Immunomodulation
"LPLP (UniProt P02666 150-153, looked up, fragment) [β-casein f(135–138)]",Bioactivity: ACE-inhibition,[2],ACE-inhibition
same,IC50 values against ACE,[2],low
same,effect on systolic blood pressure,[4],powerful decreasing agents of systolic blood pressure
LPQ,Bioactivity: DPP-IV-inhibition,DPP-IV,DPP-IV-inhibition
same,IC50,DPP-IV,82 µM
"PFP (UniProt P02666 76-78, looked up, fragment) [β-casein f(61–63)]",Bioactivity: α-glucosidase inhibition,α-glucosidase; ref BIOPEP database and Milk Bioactive Peptides Database,α-glucosidase inhibition
same,IC50,"α-glucosidase; ref [53], read-out: IC50 α-glucosidase, previously reported",8600 µM
same,Bioactivity: ACE-inhibition,[2],ACE-inhibition
"PGPIPN (UniProt P02666 78-83, looked up, fragment) [β-casein f(63–68)]",Bioactivity: ACE-inhibition,[2],ACE-inhibition
same,Bioactivity: Anti-inflammatory,[6],Anti-inflammatory
same,Bioactivity: Immunomodulation,[7],Immunomodulation
"QEPV (UniProt P02666 209-212, looked up, fragment) [β-casein f(194–197)]",Bioactivity: Immunomodulation,[7],Immunomodulation
"RPKHPIKHQGLPQEVLNENLLRF [αS1-casein f(1–23), anti-microbial peptide isracidin]",Bioactivity: Anti-microbial,[3],Anti-microbial
same,Bioactivity: Immunomodulation,[7],Immunomodulation
same,in vivo anti-microbial effect,[8],protecting mice
TEDELQDKIHPF [β-casein f(41–52)],Bioactivity: Anti-microbial,[3],Anti-microbial
TKVIPYVRYL [αS2-casein f(198–207)],Bioactivity: Anti-microbial,[3],Anti-microbial
VPP,Bioactivity: ACE-inhibition,[2],ACE-inhibition
same,IC50 values against ACE,[2],very low
same,Bioactivity: Antioxidant,[5],Antioxidant
same,Bioactivity: Anti-inflammatory,[6],Anti-inflammatory
same,in vivo anti-hypertensive effect,[9],anti-hypertensive effect
VVPPF [VVPPF],inhibition at 1000 µM,yeast α-glucosidase,22 ± 1.3%
same,IC50,yeast α-glucosidase,> 1000 µM
same,IC50,rat intestinal DPP-IV,699 ± 11.1 µM
VVVPPF [VVVPPF],inhibition at 1000 µM,yeast α-glucosidase,22.5 ± 1%
same,IC50,yeast α-glucosidase,> 1000 µM
same,IC50,rat intestinal DPP-IV,610 ± 13.6 µM
"WIQP (UniProt P02663 208-211, looked up, fragment) [αS2-casein f(193–196)]",Bioactivity: DPP-IV-inhibition,DPP-IV,DPP-IV-inhibition
same,IC50,DPP-IV,237 µM
same,Bioactivity: ACE-inhibition,[2],ACE-inhibition
YLEQLLR [αS1-casein f(94–100)],Bioactivity: Anti-microbial,[3],Anti-microbial
"YLGY (UniProt P02662 106-109, looked up, fragment) [αS1-casein f(91–94)]",Bioactivity: ACE-inhibition,[2],ACE-inhibition
same,Bioactivity: Antioxidant,[5],Antioxidant
YQEPVLGPVRGPFPIIV [β-casein f(193–209)],Bioactivity: ACE-inhibition,[2],ACE-inhibition
same,Bioactivity: Anti-microbial,[3],Anti-microbial
YQGPIVLNPWDQVKR [αS2-casein f(100–114)],Bioactivity: ACE-inhibition,[2],ACE-inhibition
same,Bioactivity: Anti-microbial,[3],Anti-microbial
same,Bioactivity: Immunomodulation,[7],Immunomodulation
